Patent publication US5635477A, “Cyclic compounds useful as inhibitors of platelet glycoprotein IIB/IIIA” (The DuPont Merck Pharmaceutical Company, priority 1995, dated 1997)
“Also recorded” adds a separate entry of the source. Read-outs that look alike come from different tables or passages of the source. Values belong to the compound of their own block, whether it stands above or below them. Starred links: 1 amine or outer side, 2 acyl side, 3 side chain; linkers in the order of their positions; H or OH if unused. Non-standard residues stand in square brackets, D forms with d. Residues, ends and D or L forms follow the SMILES beside them. NMeR = CN[C@@H](CCCNC(=N)N)C(=O)O; X8 = O=C(c1cc(CN[*:1])ccc1I)[*:2]; 3Amb = NCc1cccc(C(=O)O)c1; dAbu = CC[C@@H](N)C(=O)O

What was measured:
[1] = test system: platelet granular secretion; details: cited from earlier work
[2] = biological target: agonist-induced platelet aggregation (Homo sapiens, UniProt P05106+P08514); assay: Platelet Aggregation Assay; format: cell-based; details: human PRP; for IC50: agonist-induced aggregation
Sequence of agonist-induced platelet aggregation (P08514 32-1039): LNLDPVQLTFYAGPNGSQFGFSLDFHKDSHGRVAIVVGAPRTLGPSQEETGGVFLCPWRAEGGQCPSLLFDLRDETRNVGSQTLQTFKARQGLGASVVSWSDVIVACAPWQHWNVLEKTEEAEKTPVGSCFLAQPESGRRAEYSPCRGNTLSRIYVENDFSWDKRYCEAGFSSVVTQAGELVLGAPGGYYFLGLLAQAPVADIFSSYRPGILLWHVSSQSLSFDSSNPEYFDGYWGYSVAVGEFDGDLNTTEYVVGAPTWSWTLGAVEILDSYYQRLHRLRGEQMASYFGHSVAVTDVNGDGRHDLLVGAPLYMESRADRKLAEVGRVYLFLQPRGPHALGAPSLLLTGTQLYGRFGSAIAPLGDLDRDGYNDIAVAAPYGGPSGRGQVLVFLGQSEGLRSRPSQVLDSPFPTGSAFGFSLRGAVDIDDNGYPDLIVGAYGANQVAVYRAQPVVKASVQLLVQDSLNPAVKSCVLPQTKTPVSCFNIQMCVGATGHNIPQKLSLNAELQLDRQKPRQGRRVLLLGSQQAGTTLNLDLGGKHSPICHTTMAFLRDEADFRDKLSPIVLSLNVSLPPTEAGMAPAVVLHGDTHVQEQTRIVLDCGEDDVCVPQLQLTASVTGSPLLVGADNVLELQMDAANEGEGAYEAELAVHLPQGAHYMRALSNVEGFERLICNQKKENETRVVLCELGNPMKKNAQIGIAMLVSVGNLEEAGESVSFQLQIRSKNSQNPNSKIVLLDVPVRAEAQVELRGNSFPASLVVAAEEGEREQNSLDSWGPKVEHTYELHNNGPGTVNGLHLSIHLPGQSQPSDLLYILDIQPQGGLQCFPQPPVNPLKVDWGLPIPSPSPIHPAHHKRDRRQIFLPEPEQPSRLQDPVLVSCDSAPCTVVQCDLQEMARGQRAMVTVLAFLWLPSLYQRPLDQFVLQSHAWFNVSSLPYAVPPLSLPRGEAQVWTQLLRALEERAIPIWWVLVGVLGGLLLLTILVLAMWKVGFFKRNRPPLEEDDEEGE
Sequence of agonist-induced platelet aggregation (P05106 27-788): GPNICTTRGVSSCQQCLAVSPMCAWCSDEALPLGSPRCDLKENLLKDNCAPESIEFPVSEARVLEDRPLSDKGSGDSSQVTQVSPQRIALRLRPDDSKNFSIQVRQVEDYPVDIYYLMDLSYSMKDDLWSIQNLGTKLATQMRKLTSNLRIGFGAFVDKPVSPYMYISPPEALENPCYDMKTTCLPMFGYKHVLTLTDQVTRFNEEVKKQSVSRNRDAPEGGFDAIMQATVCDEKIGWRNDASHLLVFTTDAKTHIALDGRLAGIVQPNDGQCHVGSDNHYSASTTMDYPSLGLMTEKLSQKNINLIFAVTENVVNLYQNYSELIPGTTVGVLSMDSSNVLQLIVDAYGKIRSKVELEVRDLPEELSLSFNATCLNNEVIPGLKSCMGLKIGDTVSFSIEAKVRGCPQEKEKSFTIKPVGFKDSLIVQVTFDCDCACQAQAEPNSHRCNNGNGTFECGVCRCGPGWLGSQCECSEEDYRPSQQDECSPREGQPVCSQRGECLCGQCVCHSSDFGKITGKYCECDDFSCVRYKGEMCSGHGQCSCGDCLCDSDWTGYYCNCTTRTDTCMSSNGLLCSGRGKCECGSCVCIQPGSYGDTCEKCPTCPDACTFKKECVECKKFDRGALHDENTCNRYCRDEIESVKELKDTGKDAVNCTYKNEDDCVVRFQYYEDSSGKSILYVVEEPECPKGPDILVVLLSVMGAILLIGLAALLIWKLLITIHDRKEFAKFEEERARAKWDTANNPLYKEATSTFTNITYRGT
Protocol: Blood was collected into 10 ml citrated Vacutainer tubes.

[3] = test system: already formed platelet-rich clot; details: for lytic effect on already formed platelet-rich clot: varying concentrations
Protocol: Thrombolytic Assay: Venous blood was obtained from the arm of a healthy human donor who was drug-free and aspirin free for at least two weeks prior to blood collection, and placed into 10 ml citrated Vacutainer tubes. The blood was centrifuged for 15 minutes at 1500 ×g at room temperature, and platelet rich plasma (PRP) was removed. To the PRP was then added 1×10^- 3M of the agonist ADP, epinephrine, collagen, arachidonate, serotonin or thrombin, or a mixture thereof, and the PRP incubated for 30 minutes. The PRP was centrifuged for 12 minutes at 2500×g at room temperature. The supernatant was then poured off, and the platelets remaining in the test tube were resuspended in platelet poor plasma (PPP), which served as a plasminogen source. The suspension was then assayed on a Coulter Counter (Coulter Electronics, Inc., Hialeah, Fla.), to determine the platelet count at the zero time point. After obtaining the zero time point, test compounds were added at various concentrations. Test samples were taken at various time points and the platelets were counted using the Coulter Counter. To determine the percent of lysis, the platelet count at a time point subsequent to the addition of the test compound was subtracted from the platelet count at the zero time point, and the resulting number divided by the platelet count at the zero time point. […] For the IC50 evaluation, the test compounds were added at various concentrations, and the percentage of lysis caused by the test compounds was calculated.
Compounds A and B were also tested at varying concentrations using the thrombolytic assay described above (FIG. Ib). […] The clot was formed by incubating platelets with a mixture of agonists (TEAC mixture), which consists of thrombin (0.01 U/ml), epinephrine (250 uM), ADP (250 uM), and collagen (10 ug.ml), for 30 minutes. As a comparison, a linear peptide of sequence arginine-glycine-aspartic acid-serine (RGDS) was also tested in the thrombolytic assay.

[4] = test system: femoral artery reocclusion; assay: femoral artery reocclusion post-thrombolysis; format: in vivo, canine (male or female mongrel dogs)
Protocol: Effects of Compound A vs saline, when given to anesthetized canine (male or female mongrel dogs) at 1.0 mg/kg I.V., on the incidence of femoral artery reocclusion post-thrombolysis with streptokinase (250-300×1000 IU/kg) or t-PA. […] Data represents mean ±SEM, n=6 in each group.

[5] = test system: activated human platelets; assay: binding of 3H-labeled Compound A to activated human platelets; details: Scatchard analysis
Text: (§1) This effect may explain the lyric efficacy of the compounds of the present invention.

[6] = test system: thrombus in the femoral artery; assay: in vivo thrombolysis, modified Lucchesi model; details: listed as Compound A
Text: Data represent mean±SEM. n=3-6 in each group.

[7] = biological target: T1, platelet GPIIb/IIIa receptor (Homo sapiens, UniProt P05106+P08514); assay: Platelet-Fibrinogen Binding Assay (125I-fibrinogen, h-GPP); details: fibrinogen bound 20 minutes before compound
T1 construct: Human PRP (h-PRP) was applied to a Sepharose column for the purification of platelet fractions; endogenous in cells; host or cells: human gel-purified platelets (h-GPP) from donor platelet-rich plasma
T1 sequence (P08514 32-887 limits assumed): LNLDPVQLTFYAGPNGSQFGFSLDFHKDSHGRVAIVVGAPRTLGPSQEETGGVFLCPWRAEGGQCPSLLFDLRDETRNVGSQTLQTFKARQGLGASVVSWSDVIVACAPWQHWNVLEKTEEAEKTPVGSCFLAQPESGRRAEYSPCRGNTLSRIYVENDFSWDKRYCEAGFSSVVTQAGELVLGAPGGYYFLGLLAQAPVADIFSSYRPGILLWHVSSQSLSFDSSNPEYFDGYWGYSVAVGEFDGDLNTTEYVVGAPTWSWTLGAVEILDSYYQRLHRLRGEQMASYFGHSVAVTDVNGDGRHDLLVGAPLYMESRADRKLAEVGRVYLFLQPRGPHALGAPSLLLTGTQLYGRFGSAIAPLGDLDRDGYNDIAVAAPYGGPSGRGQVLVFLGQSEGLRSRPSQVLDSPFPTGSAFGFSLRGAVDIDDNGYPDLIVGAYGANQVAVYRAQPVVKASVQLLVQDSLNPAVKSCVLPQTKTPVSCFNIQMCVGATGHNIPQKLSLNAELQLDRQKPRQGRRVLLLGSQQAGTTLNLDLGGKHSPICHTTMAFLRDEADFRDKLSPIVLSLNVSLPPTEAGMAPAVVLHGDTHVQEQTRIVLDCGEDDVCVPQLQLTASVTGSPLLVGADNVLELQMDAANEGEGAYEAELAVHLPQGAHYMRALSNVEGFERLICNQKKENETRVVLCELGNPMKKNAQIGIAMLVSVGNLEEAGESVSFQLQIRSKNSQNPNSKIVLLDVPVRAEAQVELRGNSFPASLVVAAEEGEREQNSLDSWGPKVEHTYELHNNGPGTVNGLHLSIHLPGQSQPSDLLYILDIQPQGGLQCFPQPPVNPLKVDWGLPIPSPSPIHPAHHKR
T1 sequence (P08514 891-1039 partner limits assumed): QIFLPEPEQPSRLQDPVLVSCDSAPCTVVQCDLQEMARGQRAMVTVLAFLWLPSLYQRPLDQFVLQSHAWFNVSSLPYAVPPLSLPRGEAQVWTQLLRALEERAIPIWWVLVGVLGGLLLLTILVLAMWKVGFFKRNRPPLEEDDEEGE
T1 sequence (P05106 27-788): as the sequence (P05106 27-788) above
Protocol: Platelet-Fibrinogen Binding Assay: Binding of ^125 I-fibrinogen to platelets was performed as described by Bennett et al. (1983) Proc. Natl. Acad. Sci. USA 80: 2417-2422, with some modifications as described below. Human PRP (h-PRP) was applied to a Sepharose column for the purification of platelet fractions. Aliquots of platelets (5×10^8 cells) along with 1 mM calcium chloride were added to removable 96 well plates prior to the activation of the human gel purified platelets (h-GPP). Activation of the human gel purified platelets was achieved using ADP, collagen, arachidonate, epinephrine, and/or thrombin in the presence of the ligand, ^125 I-fibrinogen. The ^125 I-fibrinogen bound to the activated, platelets was separated from the free form by centrifugation and then counted on a gamma counter.

[8] = biological target: T2, purified GPIIb/IIIa receptors obtained from human platelets (Homo sapiens, UniProt P05106+P08514); assay: purified GPIIb/IIIa-biotinylated fibrinogen ELISA; format: binding; details: competitive; Michaelis-Menten analysis
T2 construct: purified GPIIb/IIIa receptors obtained from human platelets; from tissue; host or cells: human platelets
T2 sequence (P08514 32-887 limits assumed): as the sequence (P08514 32-887 limits assumed) above
T2 sequence (P08514 891-1039 partner limits assumed): as the sequence (P08514 891-1039 partner limits assumed) above
T2 sequence (P05106 27-788): as the sequence (P05106 27-788) above
Text: as §1

Compound: CC(=O)Oc1ccccc1C(=O)O [aspirin, acetylsalicyclic acid, reference compound]
- effect on platelet granular secretion (PAI-1, serotonin) [1]: inhibit platelet granular secretion

Compound: CC(C)[C@H]1NC(=O)c2cccc(c2)CNC(=O)[C@H](CC(=O)O)NC(=O)CNC(=O)[C@H](CCCNC(=N)N)N(C)C1=O [Example 4, cyclo-(D-Val-NMeArg-Gly-Asp-Mamb)]
- IC50 [2]: < 1000 nM
- IC50 [3]: 500 to 1000 nM
- thrombolytic effect in combination with tPA, urokinase or streptokinase ([3]; in vitro, pre-formed platelet-rich clot): significantly better than the additive effects of both agents
- lytic effect on already formed platelet-rich clot ([3]; listed as B): significant lyric efficacy of pre-formed platelet rich-clot
- lytic effect on already formed platelet-rich clot ([3]; listed as Compound B): significant lytic effect on the clot

Compound: hirudin
- effect on platelet granular secretion (PAI-1, serotonin) [1]: inhibit platelet granular secretion

Compound: CC[C@H]1NC(=O)c2cccc(c2)CNC(=O)[C@H](CC(=O)O)NC(=O)CNC(=O)[C@H](CCCNC(=N)N)N(C)C1=O [Example 3, cyclo-(D-Abu-NMeArg-Gly-Asp-Mamb)] (cyclo([NMeR]GD[3Amb][dAbu]))
- period without reocclusion ([4]; 1.0 mg/kg I.V., post-thrombolysis): > 240 min
- prevention of reocclusion ([4]; 1.0 mg/kg I.V., post-thrombolysis with streptokinase or t-PA): 100%
- reocclusion following SK or t-PA thrombolysis ([4]; dog, in vivo): virtually no reocclusion
- deaggregation of platelets ([2]; added after initiation of aggregation): deaggregate platelets after the initiation of aggregation
- IC50 [2]: < 1000 nM
- Kd [5]: 0.1 nM
- lysis percentage ([3]; 0.001 mM, platelet stimulation 1x10^-3 M ADP): ≥ 70%
- lytic effect on already formed platelet-rich clot ([3]; listed as A): significant lyric efficacy of pre-formed platelet rich-clot
- lytic effect on already formed platelet-rich clot ([3]; listed as Compound A): significant lytic effect on the clot
- in vivo thrombolytic efficacy with streptokinase ([6]; 1 mg/kg I.V. plus sub-optimum streptokinase (75 KU)): significant synergistic effect in fully lysing the thrombus; also recorded: increase in in vivo thrombolytic efficacy while allowing a significantly lower dose of streptokinase
- in vivo thrombolytic efficacy alone ([6]; 1 mg/kg I.V.): significant lysis of an already formed thrombus in the femoral artery; also recorded: good in vivo thrombolytic efficacy
- displacement of 125I-fibrinogen bound to activated platelets [7]: displace ^125 I-fibrinogen bound to activated platelets

Compound: CC[C@H]1NC(=O)c2cccc(c2)CNC(=O)[C@H](CC(=O)O)NC(=O)CNC(=O)[C@H](CCCN=C(N)N)N(C)C1=O [Example 3, cyclo-(D-Abu-NMeArg-Gly-Asp-Mamb)] (cyclo([NMeR]GD[3Amb][dAbu]))
- Ki [8]: 0.4 nM

- IC50 [2]: < 1000 nM
Compound: CC(C)[C@H]1NC(=O)c2ccc3c(c2)C(CCC3)NC(=O)[C@H](CC(=O)O)NC(=O)CNC(=O)[C@H](CCCNC(=N)N)N(C)C1=O (single isomer, unassigned) [Example 89a, cyclo-(D-Val-NMeArg-Gly-Asp-aminotetralincarboxylic acid)]

- IC50 [2]: < 1000 nM
Compound: CC[C@H]1NC(=O)c2cc(ccc2I)CNC(=O)[C@H](CC(=O)O)NC(=O)CNC(=O)[C@H](CCCNC(=N)N)N(C)C1=O [Example 100b, cyclo-(D-Abu-NMeArg-Gly-Asp-3-aminomethyl-6-iodobenzoic acid)] (cyclo([NMeR]GD[X8][dAbu]))

Compound: CC(C)C[C@H]1NC(=O)c2cccc(c2)CNC(=O)[C@H](CC(=O)O)NC(=O)CNC(=O)[C@H](CCCNC(=N)N)N(C)C1=O [Example 5, cyclo-(D-Leu-NMeArg-Gly-Asp-Mamb)] (cyclo([NMeR]GD[3Amb][dL]))
- IC50 [2]: < 1000 nM
